Test results: ChEMBL document CHEMBL1133418, “Synthesis and biological evaluation of novel 9-functional heterocyclic coupled 7-deoxy-9-dihydropaclitaxel analogue” (2000)

Assays:
Format in all cases: functional
ECa-109 cell line [1] = assay: Cytotoxicity ratio was evaluated against tumor cell line ECa-109 (Human esophagus cancer) after 72 hr incubation relative to paclitaxel (ED50 = […])
MCF7 [2] = assay: Cytotoxicity ratio was evaluated against human tumor cell line MCF-7 (Human breast cancer) after 72 hr incubation relative to paclitaxel (ED50 = […])
SK-OV-3 [3] = assay: Cytotoxicity ratio was evaluated against human tumor cell line SKOV3 (Human ovarian cancer) after 72 hr incubation relative to paclitaxel (ED50 = […])
[4] = target: Tubulin alpha chain (Sus scrofa) (UniProt P02550); assay: Effective dose which causes polymerization of 50% of the tubulin present at 37 degree C in Microtubule assembly assay
WiDr [5] = assay: Cytotoxicity ratio was evaluated against human tumor cell line WIDR (Human colon cancer) after 72 hr incubation relative to paclitaxel (ED50 = […])
ECa-109 cell line [6] = assay: Cytotoxicity ratio was evaluated against tumor cell line ECa-109 (Human esophagus cancer) after 72 hr incubation
MCF7 [7] = assay: Cytotoxicity ratio was evaluated against human tumor cell line MCF-7 (Human breast cancer) after 72 h incubation
SK-OV-3 [8] = assay: Cytotoxicity ratio was evaluated against human tumor cell line SKOV3 (Human ovarian cancer) after 72 hr incubation
WiDr [9] = assay: Cytotoxicity ratio was evaluated against human tumor cell line WIDR (Human colon cancer) after 72 hr incubation

Sequence of Tubulin alpha chain (Sus scrofa) (P02550 whole entry, looked up): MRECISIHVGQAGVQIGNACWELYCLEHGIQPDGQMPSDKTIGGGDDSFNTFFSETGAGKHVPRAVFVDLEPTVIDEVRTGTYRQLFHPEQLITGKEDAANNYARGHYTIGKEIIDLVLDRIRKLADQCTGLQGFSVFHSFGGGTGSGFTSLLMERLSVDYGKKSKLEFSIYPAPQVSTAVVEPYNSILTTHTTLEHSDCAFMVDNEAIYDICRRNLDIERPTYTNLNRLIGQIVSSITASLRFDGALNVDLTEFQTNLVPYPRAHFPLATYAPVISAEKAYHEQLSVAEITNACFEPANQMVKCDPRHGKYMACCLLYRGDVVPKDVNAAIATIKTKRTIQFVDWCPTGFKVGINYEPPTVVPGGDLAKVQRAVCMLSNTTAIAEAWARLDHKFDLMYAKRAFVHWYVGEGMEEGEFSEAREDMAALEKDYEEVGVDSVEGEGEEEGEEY

SMILES | Ratio (ECa-109 cell line [1]) | Ratio (MCF7 [2]) | Ratio (SK-OV-3 [3]) | ED50 [4] | Ratio (WiDr [5]) | Ratio (ECa-109 cell line [6]) | Ratio (MCF7 [7]) | Ratio (SK-OV-3 [8]) | Ratio (WiDr [9])
CC(=O)O[C@@H]1C2=C(C)[C@@H](OC(=O)[C@H](O)[C@@H](NC(=O)c3ccccc3)c3ccccc3)C[C@@](O)([C@@H](OC(=O)c3ccccc3)C3[C@@](C)(CC[C@H]4OC[C@@]34OC(C)=O)[C@H]1OC(=O)CCC(=O)OC[C@H]1O[C@@H](n3cc(C)c(=O)[nH]c3=O)C[C@@H]1N=[N+]=[N-])C2(C)C (stereo not given in full) | 3.54 | 3.13 | 3.41 | > 20000 nM | 2.62 | – | – | – | –
CC(=O)O[C@@H]1C2=C(C)[C@@H](OC(=O)[C@H](O)[C@@H](NC(=O)c3ccccc3)c3ccccc3)C[C@@](O)([C@@H](OC(=O)c3ccccc3)C3[C@@](C)(CC[C@H]4OC[C@@]34OC(C)=O)[C@H]1OC(=O)CCC(=O)OC[C@H]1O[C@@H](n3cnc4c(Cl)ncnc43)[C@H](O)[C@@H]1O)C2(C)C (stereo not given in full) | 0.18 | 3.68 | 2.24 | > 15000 nM | 2.16 | – | – | – | –
CC(=O)O[C@@H]1C2=C(C)[C@@H](OC(=O)[C@H](O)[C@@H](NC(=O)c3ccccc3)c3ccccc3)C[C@@](O)([C@@H](OC(=O)c3ccccc3)C3[C@@](C)(CC[C@H]4OC[C@@]34OC(C)=O)[C@H]1OC(=O)CCC(=O)OC[C@H]1O[C@@H](n3cc(Br)c(=O)[nH]c3=O)[C@H](O)[C@@H]1O)C2(C)C (stereo not given in full) | 0.16 | 2.64 | 4.06 | > 15000 nM | 3.87 | – | – | – | –
CC(=O)O[C@@H]1C2=C(C)[C@@H](OC(=O)[C@H](O)[C@@H](NC(=O)c3ccccc3)c3ccccc3)C[C@@](O)([C@@H](OC(=O)c3ccccc3)C3[C@@](C)(CC[C@H]4OC[C@@]34OC(C)=O)[C@H]1OC(=O)CCC(=O)OC[C@H]1O[C@@H](n3ccc(NC(=O)c4ccccc4)nc3=O)C[C@@H]1O)C2(C)C (stereo not given in full) | 1.03 | 1.63 | 1.98 | 900 nM | 2.43 | – | – | – | –
CC(=O)O[C@H]1C(=O)[C@@]2(C)[C@H]([C@H](OC(=O)c3ccccc3)[C@]3(O)C[C@H](OC(=O)[C@H](O)[C@@H](NC(=O)c4ccccc4)c4ccccc4)C(C)=C1C3(C)C)[C@]1(OC(C)=O)CO[C@@H]1C[C@@H]2O [PACLITAXEL] | – | – | – | 400 nM | – | 1 | 1 | 1 | 1
